In patent publication US9114171B2, “Racecadotril liquid compositions” (McNeil-PPC, Inc., priority 2012, dated 2015):

Test: Stability of Racecadotril in Beta-HPCD at 40° C., pH 3.6/4.0/4.5 (HPLC)
Type: physicochemical
Method: Test Methods Sample Preparation: • 1. Pipet 1 mL of Racecadotril solution into a 100 mL volumetric flask (V.F.) • 2. Dilute to volume with the same buffer used in the solution preparation. • 3. Further dilute the sample solution to about 0.1 mg/mL if necessary. […] Parameters may be modified to optimize chromatography. • The assay of Racecadotril is determined by using the external standard injected. The degradation products levels are determined by % peak area relative to the Racecadotril peak. Chromatographic Conditions (European Pharmacopoeia Racecadotril Method): [table] Gradient Table: [table] Mobil Phase A: Phosphate buffer, pH 2.5 (Buffer prep: dissolve 1 g of potassium dihydrogen phosphate in water, adjust to pH 2.5 with phosphoric acid, dilute to 1000 mL with water) Mobil Phase B: 100% Acetonitrile Stability of Racecadotril in Beta-Hydroxypropyl-Cyclodextrin (Beta-HPCD) at 40° C.

[1] = Acetate, pH 3.6, 40° C., 1 week
[2] = Acetate, pH 3.6, 40° C., 2 week
[3] = Acetate, pH 3.6, 40° C., 3 week
[4] = Acetate, pH 3.6, 40° C., 4 week
[5] = Acetate, pH 3.6, 40° C., 6 week
[6] = Acetate, pH 3.6, 40° C., 8 week
[7] = Acetate, pH 3.6, 40° C., Initial
[8] = Acetate, pH 4.0, 40° C., 1 week
[9] = Acetate, pH 4.0, 40° C., 2 week
[10] = Acetate, pH 4.0, 40° C., 3 week
[11] = Acetate, pH 4.0, 40° C., 4 week
[12] = Acetate, pH 4.0, 40° C., 6 week
[13] = Acetate, pH 4.0, 40° C., 8 week
[14] = Acetate, pH 4.0, 40° C., Initial
[15] = Acetate, pH 4.5, 40° C., 1 week
[16] = Acetate, pH 4.5, 40° C., 2 week
[17] = Acetate, pH 4.5, 40° C., 3 week
[18] = Acetate, pH 4.5, 40° C., 4 week
[19] = Acetate, pH 4.5, 40° C., 6 week
[20] = Acetate, pH 4.5, 40° C., 8 week
[21] = Acetate, pH 4.5, 40° C., Initial
[22] = Citrate, pH 3.6, 40° C., 1 week
[23] = Citrate, pH 3.6, 40° C., 2 week
[24] = Citrate, pH 3.6, 40° C., 3 week
[25] = Citrate, pH 3.6, 40° C., 4 week
[26] = Citrate, pH 3.6, 40° C., 6 week
[27] = Citrate, pH 3.6, 40° C., 8 week
[28] = Citrate, pH 3.6, 40° C., Initial
[29] = Citrate, pH 4.0, 40° C., 1 week
[30] = Citrate, pH 4.0, 40° C., 2 week
[31] = Citrate, pH 4.0, 40° C., 3 week
[32] = Citrate, pH 4.0, 40° C., 4 week
[33] = Citrate, pH 4.0, 40° C., 6 week
[34] = Citrate, pH 4.0, 40° C., 8 week
[35] = Citrate, pH 4.0, 40° C., Initial
[36] = Citrate, pH 4.5, 40° C., 1 week
[37] = Citrate, pH 4.5, 40° C., 2 week
[38] = Citrate, pH 4.5, 40° C., 3 week
[39] = Citrate, pH 4.5, 40° C., 4 week
[40] = Citrate, pH 4.5, 40° C., 6 week
[41] = Citrate, pH 4.5, 40° C., 8 week
[42] = Citrate, pH 4.5, 40° C., Initial

CC(=O)SCC(Cc1ccccc1)C(=O)NCC(=O)OCc1ccccc1 (racemic) [Racecadotril]
Benz Alcohol [1]: 0.69%
Impurity C [1]: 0.93%
Impurity G [1]: 1.17%
RAC [1]: 97.21%
Thiorphan [1]: 0.00%
Benz Alcohol [2]: 1.40%
Impurity C [2]: 1.87%
Impurity G [2]: 1.74%
RAC [2]: 94.88%
Thiorphan [2]: 0.11%
Benz Alcohol [3]: 2.13%
Impurity C [3]: 2.78%
Impurity G [3]: 1.93%
RAC [3]: 93.01%
Thiorphan [3]: 0.14%
Benz Alcohol [4]: 2.84%
Impurity C [4]: 3.56%
Impurity G [4]: 3.00%
RAC [4]: 90.15%
Thiorphan [4]: 0.30%
Benz Alcohol [5]: 4.33%
Impurity C [5]: 5.17%
Impurity G [5]: 3.82%
RAC [5]: 85.75%
Thiorphan [5]: 0.57%
Benz Alcohol [6]: 5.78%
Impurity C [6]: 6.33%
Impurity G [6]: 5.28%
RAC [6]: 80.68%
Thiorphan [6]: 1.00%
Benz Alcohol [7]: 0.00%
Impurity C [7]: 0.00%
Impurity G [7]: 0.07%
RAC [7]: 99.93%
Thiorphan [7]: 0.00%
Benz Alcohol [8]: 0.70%
Impurity C [8]: 0.93%
Impurity G [8]: 1.36%
RAC [8]: 97.01%
Thiorphan [8]: 0.00%
Benz Alcohol [9]: 1.39%
Impurity C [9]: 1.82%
Impurity G [9]: 1.70%
RAC [9]: 95.02%
Thiorphan [9]: 0.07%
Benz Alcohol [10]: 2.09%
Impurity C [10]: 2.83%
Impurity G [10]: 2.66%
RAC [10]: 92.23%
Thiorphan [10]: 0.19%
Benz Alcohol [11]: 2.84%
Impurity C [11]: 3.52%
Impurity G [11]: 3.62%
RAC [11]: 89.50%
Thiorphan [11]: 0.38%
Benz Alcohol [12]: 4.28%
Impurity C [12]: 5.16%
Impurity G [12]: 5.67%
RAC [12]: 83.98%
Thiorphan [12]: 0.71%
Benz Alcohol [13]: 5.37%
Impurity C [13]: 6.20%
Impurity G [13]: 8.46%
RAC [13]: 78.53%
Thiorphan [13]: 1.19%
Benz Alcohol [14]: 0.00%
Impurity C [14]: 0.00%
Impurity G [14]: 0.00%
RAC [14]: 100.00%
Thiorphan [14]: 0.00%
Benz Alcohol [15]: 0.02%
Impurity C [15]: 0.21%
Impurity G [15]: 3.17%
RAC [15]: 96.33%
Thiorphan [15]: 0.02%
Benz Alcohol [16]: 0.40%
Impurity C [16]: 0.40%
Impurity G [16]: 6.50%
RAC [16]: 92.61%
Thiorphan [16]: 0.04%
Benz Alcohol [17]: 0.59%
Impurity C [17]: 0.58%
Impurity G [17]: 9.43%
RAC [17]: 89.29%
Thiorphan [17]: 0.06%
Benz Alcohol [18]: 0.79%
Impurity C [18]: 0.72%
Impurity G [18]: 11.84%
RAC [18]: 86.50%
Thiorphan [18]: 0.11%
Benz Alcohol [19]: 1.14%
Impurity C [19]: 1.04%
Impurity G [19]: 17.32%
RAC [19]: 80.25%
Thiorphan [19]: 0.20%
Benz Alcohol [20]: 1.51%
Impurity C [20]: 1.25%
Impurity G [20]: 21.73%
RAC [20]: 75.06%
Thiorphan [20]: 0.36%
Benz Alcohol [21]: 0.02%
Impurity C [21]: 0.02%
Impurity G [21]: 0.21%
RAC [21]: 99.68%
Thiorphan [21]: 0.01%
Benz Alcohol [22]: 0.79%
Impurity C [22]: 0.98%
Impurity G [22]: 1.78%
RAC [22]: 96.45%
Thiorphan [22]: 0.00%
Benz Alcohol [23]: 1.72%
Impurity C [23]: 2.30%
Impurity G [23]: 3.81%
RAC [23]: 92.01%
Thiorphan [23]: 0.13%
Benz Alcohol [24]: 2.59%
Impurity C [24]: 3.36%
Impurity G [24]: 5.52%
RAC [24]: 88.22%
Thiorphan [24]: 0.31%
Benz Alcohol [25]: 3.38%
Impurity C [25]: 4.23%
Impurity G [25]: 7.38%
RAC [25]: 84.51%
Thiorphan [25]: 0.47%
Benz Alcohol [26]: 5.09%
Impurity C [26]: 6.13%
Impurity G [26]: 9.72%
RAC [26]: 77.91%
Thiorphan [26]: 1.11%
Benz Alcohol [27]: 6.64%
Impurity C [27]: 7.54%
Impurity G [27]: 12.47%
RAC [27]: 71.51%
Thiorphan [27]: 1.80%
Benz Alcohol [28]: 0.00%
Impurity C [28]: 0.00%
Impurity G [28]: 0.09%
RAC [28]: 99.91%
Thiorphan [28]: 0.00%
Benz Alcohol [29]: 0.89%
Impurity C [29]: 1.23%
Impurity G [29]: 1.95%
RAC [29]: 95.93%
Thiorphan [29]: 0.00%
Benz Alcohol [30]: 1.41%
Impurity C [30]: 1.82%
Impurity G [30]: 3.47%
RAC [30]: 93.19%
Thiorphan [30]: 0.11%
Benz Alcohol [31]: 2.36%
Impurity C [31]: 2.82%
Impurity G [31]: 4.79%
RAC [31]: 89.81%
Thiorphan [31]: 0.21%
Benz Alcohol [32]: 2.79%
Impurity C [32]: 3.43%
Impurity G [32]: 6.57%
RAC [32]: 86.78%
Thiorphan [32]: 0.40%
Benz Alcohol [33]: 4.19%
Impurity C [33]: 4.98%
Impurity G [33]: 9.24%
RAC [33]: 80.70%
Thiorphan [33]: 0.85%
Benz Alcohol [34]: 5.54%
Impurity C [34]: 6.22%
Impurity G [34]: 11.26%
RAC [34]: 75.46%
Thiorphan [34]: 1.42%
Benz Alcohol [35]: 0.00%
Impurity C [35]: 0.00%
Impurity G [35]: 0.00%
RAC [35]: 100.00%
Thiorphan [35]: 0.00%
Benz Alcohol [36]: 0.22%
Impurity C [36]: 0.18%
Impurity G [36]: 3.15%
RAC [36]: 96.44%
Thiorphan [36]: 0.01%
Benz Alcohol [37]: 0.40%
Impurity C [37]: 0.36%
Impurity G [37]: 6.04%
RAC [37]: 93.19%
Thiorphan [37]: 0.03%
Benz Alcohol [38]: 0.59%
Impurity C [38]: 0.52%
Impurity G [38]: 8.66%
RAC [38]: 90.20%
Thiorphan [38]: 0.06%
Benz Alcohol [39]: 0.79%
Impurity C [39]: 0.62%
Impurity G [39]: 11.16%
RAC [39]: 87.41%
Thiorphan [39]: 0.10%
Benz Alcohol [40]: 1.14%
Impurity C [40]: 0.90%
Impurity G [40]: 15.86%
RAC [40]: 82.05%
Thiorphan [40]: 0.17%
Benz Alcohol [41]: 1.51%
Impurity C [41]: 1.11%
Impurity G [41]: 19.95%
RAC [41]: 77.34%
Thiorphan [41]: 0.29%
Benz Alcohol [42]: 0.02%
Impurity C [42]: 0.01%
Impurity G [42]: 0.19%
RAC [42]: 99.71%
Thiorphan [42]: 0.01%
